# Measured values as given in patent publication US12428408B2, “Fused heterocyclic mescaline derivatives” (Enveric Biosciences Canada Inc., priority 2022, dated 2025).
# Where two headings read alike, the source gives them in different places.
# Legend:
# [1] = biological target: T1, 5-HT1A receptor (Homo sapiens, UniProt P08908); assay: 5-HT1A receptor radioligand competition assay (SPA); format: binding
# T1 construct: purchased Perkin Elmer 6110501400UA
# T1 sequence (P08908 1-422): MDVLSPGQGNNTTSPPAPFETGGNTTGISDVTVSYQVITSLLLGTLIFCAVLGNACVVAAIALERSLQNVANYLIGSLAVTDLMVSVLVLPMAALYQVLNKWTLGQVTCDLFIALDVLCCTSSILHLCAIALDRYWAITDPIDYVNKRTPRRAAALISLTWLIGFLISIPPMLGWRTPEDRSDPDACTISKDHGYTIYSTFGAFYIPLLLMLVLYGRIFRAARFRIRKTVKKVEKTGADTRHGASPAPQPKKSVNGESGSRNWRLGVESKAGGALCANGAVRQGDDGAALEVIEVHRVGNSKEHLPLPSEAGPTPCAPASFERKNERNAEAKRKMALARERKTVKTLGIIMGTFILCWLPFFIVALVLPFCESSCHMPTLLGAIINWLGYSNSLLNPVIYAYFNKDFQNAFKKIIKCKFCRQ
# [2] = biological target: T2, human serotonin transporter (SERT) (Homo sapiens, UniProt P31645); assay: biochemical; format: binding
# T2 construct: purchased PerkinElmer RBHSTM400UA
# [3] = biological target: T3, 5-HT1B (h) (Homo sapiens, UniProt P28222); assay: Competition assay to measure binding affinity at 5-HT1B receptor; conditions: test ligand 10 μM; [3H]GR125743 1 nM
# T3 construct: host or cells: Chem-1 (RBL) cells
# [4] = biological target: T4, 5-HT1D (r) (Rattus norvegicus, UniProt P28565); assay: Competition assay to measure binding affinity at 5-HT1D receptor; conditions: test ligand 10 μM; [3H]serotonin 1 nM
# T4 construct: host or cells: CHO cells
# [5] = biological target: T5, 5-HT2B (h) (Homo sapiens, UniProt P41595); assay: Competition assay to measure binding affinity at 5-HT2B receptor; conditions: test ligand 10 μM; [3H]mesulergine 2 nM
# T5 construct: host or cells: CHO cells
# [6] = biological target: T6, 5-HT2C (h) (Homo sapiens, UniProt P28335); assay: Competition assay to measure binding affinity at 5-HT2C receptor; conditions: test ligand 10 μM; [125I](±)DOI 0.1 nM
# T6 construct: host or cells: HEK-293 cells
# T6 sequence (P28335 33-458): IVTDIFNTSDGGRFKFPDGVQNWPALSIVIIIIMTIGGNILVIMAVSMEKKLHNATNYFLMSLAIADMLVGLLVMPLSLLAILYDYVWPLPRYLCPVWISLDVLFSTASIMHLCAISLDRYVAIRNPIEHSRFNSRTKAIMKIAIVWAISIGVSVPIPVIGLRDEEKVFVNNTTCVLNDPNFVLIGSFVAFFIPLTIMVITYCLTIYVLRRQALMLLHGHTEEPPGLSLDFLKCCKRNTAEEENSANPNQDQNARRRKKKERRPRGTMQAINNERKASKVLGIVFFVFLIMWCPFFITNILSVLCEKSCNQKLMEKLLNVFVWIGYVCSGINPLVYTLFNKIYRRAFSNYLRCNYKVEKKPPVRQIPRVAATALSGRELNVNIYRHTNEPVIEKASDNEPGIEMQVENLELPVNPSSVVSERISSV
# [7] = biological target: T7, 5-HT7 (h) (Homo sapiens, UniProt P34969); assay: Competition assay to measure binding affinity at 5-HT7 receptor; conditions: test ligand 10 μM; [3H]LSD 4 nM
# T7 construct: host or cells: HEK-293 cells
# [8] = biological target: T8, alpha2A (h) (Homo sapiens, UniProt P08913); assay: Competition assay to measure binding affinity at alpha2A receptor; conditions: test ligand 10 μM; [3H]RX 821002 1 nM; read-out: α-2A, percent of control-specific binding
# T8 construct: host or cells: CHO cells
# T8 sequence (P08913 1-465): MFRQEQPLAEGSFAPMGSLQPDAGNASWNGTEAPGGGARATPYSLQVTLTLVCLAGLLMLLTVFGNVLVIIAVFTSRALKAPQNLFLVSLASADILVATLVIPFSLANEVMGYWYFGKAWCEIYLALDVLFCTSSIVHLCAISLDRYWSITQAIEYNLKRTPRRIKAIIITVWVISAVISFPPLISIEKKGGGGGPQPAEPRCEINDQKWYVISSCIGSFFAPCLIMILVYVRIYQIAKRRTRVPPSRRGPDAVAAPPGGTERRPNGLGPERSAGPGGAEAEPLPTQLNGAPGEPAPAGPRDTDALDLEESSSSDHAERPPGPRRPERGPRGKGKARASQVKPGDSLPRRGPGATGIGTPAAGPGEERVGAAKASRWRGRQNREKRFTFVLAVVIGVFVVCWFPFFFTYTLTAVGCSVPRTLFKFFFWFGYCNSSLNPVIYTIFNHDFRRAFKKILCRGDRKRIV
# [9] = biological target: T9, D2 (h) (Homo sapiens, UniProt P14416); assay: Competition assay to measure binding affinity at D2L receptor; conditions: test ligand 10 μM; [3H]methylspiperone 0.3 nM
# T9 construct: host or cells: HEK-293 cells
# [10] = biological target: T10, D3 (h) (Homo sapiens, UniProt P35462); assay: Competition assay to measure binding affinity at D3 receptor; conditions: test ligand 10 μM; [3H]methylspiperone […]
# T10 construct: host or cells: CHO cells
# [11] = biological target: T11, DAT (h) (Homo sapiens, UniProt Q01959); assay: Competition assay to measure binding affinity at dopamine transporter (DAT); conditions: test ligand 10 μM; [3H]BTCP 4 nM
# T11 construct: host or cells: CHO cells
# [12] = biological target: T12, MT1 (ML1A) (h) (Homo sapiens, UniProt P48039); assay: Competition assay to measure binding affinity at MT1 receptor; conditions: test ligand 10 μM; [125I]2-iodomelatonin 0.01 nM
# T12 construct: host or cells: CHO cells
# [13] = biological target: T13, NET (h) (Homo sapiens, UniProt P23975); assay: Competition assay to measure binding affinity at norepinephrine transporter (NET); conditions: test ligand 10 μM; [3H]nisoxetine 1 nM
# T13 construct: host or cells: CHO cells
# [14] = biological target: 5-HT2A receptor (Homo sapiens, UniProt P28223); assay: 5-HT2A receptor radioligand competition assay (SPA)
# [15] = competition with 0.5 nM 8-hydroxy-DPAT [3H], test compound 3 nM to 1 mM, read-out: 5-HT1A, Ki
# T13 sequence (P23975 whole entry): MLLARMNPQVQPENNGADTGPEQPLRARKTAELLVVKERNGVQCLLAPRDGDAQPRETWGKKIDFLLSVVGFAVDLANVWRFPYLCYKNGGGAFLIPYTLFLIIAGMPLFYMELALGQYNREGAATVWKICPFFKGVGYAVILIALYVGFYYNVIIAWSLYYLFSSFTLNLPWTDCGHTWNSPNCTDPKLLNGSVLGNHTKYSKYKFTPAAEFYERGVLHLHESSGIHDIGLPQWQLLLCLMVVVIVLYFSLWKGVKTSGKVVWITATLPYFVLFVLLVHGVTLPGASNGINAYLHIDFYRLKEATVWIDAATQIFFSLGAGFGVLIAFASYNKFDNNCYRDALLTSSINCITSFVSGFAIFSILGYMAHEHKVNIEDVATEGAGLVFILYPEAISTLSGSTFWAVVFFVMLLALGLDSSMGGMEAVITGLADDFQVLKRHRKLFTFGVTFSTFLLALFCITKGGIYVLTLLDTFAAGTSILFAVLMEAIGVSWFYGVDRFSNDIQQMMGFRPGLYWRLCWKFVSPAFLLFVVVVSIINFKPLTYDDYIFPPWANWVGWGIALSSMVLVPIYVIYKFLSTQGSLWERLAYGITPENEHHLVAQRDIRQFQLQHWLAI
# T12 sequence (P48039 whole entry): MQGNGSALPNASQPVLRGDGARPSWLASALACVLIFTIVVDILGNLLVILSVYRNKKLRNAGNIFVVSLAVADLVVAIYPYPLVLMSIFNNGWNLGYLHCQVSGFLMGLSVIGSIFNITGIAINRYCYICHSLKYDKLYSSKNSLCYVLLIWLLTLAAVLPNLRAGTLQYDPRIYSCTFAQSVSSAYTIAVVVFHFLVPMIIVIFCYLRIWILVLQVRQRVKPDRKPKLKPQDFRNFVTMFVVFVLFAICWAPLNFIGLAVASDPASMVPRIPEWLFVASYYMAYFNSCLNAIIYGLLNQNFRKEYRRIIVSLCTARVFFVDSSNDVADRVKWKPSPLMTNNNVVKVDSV
# T10 sequence (P35462 whole entry): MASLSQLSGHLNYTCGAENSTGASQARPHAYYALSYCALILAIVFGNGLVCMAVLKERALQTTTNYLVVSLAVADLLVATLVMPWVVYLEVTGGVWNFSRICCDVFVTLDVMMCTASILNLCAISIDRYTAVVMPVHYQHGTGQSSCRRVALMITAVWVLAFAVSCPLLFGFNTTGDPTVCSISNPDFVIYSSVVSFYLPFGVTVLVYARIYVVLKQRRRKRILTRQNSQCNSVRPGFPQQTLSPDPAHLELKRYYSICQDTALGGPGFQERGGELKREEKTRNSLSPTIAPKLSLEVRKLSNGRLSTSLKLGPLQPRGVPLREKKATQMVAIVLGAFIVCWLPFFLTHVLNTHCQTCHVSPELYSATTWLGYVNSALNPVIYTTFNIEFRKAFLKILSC
# T5 sequence (P41595 whole entry): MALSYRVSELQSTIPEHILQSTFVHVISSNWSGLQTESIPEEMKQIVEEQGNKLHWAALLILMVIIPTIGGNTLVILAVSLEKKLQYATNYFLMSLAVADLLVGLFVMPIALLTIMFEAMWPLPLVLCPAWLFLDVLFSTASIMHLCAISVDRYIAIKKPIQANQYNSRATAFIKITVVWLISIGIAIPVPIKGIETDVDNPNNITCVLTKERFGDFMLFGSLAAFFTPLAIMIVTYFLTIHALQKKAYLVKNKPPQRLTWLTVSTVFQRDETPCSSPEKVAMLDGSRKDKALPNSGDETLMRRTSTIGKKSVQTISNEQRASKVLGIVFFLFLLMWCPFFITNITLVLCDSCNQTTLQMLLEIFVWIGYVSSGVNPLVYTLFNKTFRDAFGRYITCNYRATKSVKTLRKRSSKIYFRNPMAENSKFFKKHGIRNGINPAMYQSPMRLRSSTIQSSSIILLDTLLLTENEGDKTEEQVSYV
# T3 sequence (P28222 whole entry): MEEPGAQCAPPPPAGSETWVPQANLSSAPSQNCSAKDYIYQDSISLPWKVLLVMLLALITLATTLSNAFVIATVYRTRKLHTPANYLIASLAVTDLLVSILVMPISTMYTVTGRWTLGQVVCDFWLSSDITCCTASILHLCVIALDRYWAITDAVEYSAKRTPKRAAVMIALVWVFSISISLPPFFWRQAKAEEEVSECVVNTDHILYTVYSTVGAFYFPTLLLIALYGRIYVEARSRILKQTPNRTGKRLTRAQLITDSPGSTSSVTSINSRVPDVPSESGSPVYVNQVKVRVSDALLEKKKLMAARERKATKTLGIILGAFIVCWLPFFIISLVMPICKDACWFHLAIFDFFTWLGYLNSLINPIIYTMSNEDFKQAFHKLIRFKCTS
# T2 sequence (P31645 whole entry): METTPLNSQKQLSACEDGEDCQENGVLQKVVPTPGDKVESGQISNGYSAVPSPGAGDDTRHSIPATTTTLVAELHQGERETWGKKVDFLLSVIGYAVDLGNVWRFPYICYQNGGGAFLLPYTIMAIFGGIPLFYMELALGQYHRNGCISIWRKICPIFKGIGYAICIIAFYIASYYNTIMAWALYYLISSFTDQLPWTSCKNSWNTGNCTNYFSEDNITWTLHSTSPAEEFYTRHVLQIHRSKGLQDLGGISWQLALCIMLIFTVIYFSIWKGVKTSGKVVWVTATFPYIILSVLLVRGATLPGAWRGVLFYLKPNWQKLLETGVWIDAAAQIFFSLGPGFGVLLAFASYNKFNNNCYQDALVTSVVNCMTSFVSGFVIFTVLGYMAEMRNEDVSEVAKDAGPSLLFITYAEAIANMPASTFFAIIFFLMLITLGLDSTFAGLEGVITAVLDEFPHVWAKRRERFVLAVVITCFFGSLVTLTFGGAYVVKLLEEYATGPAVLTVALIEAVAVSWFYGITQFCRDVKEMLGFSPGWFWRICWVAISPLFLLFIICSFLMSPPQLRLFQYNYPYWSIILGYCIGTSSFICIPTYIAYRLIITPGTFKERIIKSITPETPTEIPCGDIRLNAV
# T4 sequence (P28565 whole entry): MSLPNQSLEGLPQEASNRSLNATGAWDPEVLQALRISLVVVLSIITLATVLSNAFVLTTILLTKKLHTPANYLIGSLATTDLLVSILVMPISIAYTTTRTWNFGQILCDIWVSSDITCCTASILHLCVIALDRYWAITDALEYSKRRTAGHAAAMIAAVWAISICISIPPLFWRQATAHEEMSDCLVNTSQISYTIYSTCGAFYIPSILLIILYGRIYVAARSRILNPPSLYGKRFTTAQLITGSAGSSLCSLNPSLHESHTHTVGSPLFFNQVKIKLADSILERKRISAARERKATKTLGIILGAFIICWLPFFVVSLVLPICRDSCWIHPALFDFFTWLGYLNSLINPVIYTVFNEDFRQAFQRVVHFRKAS
# T7 sequence (P34969 whole entry): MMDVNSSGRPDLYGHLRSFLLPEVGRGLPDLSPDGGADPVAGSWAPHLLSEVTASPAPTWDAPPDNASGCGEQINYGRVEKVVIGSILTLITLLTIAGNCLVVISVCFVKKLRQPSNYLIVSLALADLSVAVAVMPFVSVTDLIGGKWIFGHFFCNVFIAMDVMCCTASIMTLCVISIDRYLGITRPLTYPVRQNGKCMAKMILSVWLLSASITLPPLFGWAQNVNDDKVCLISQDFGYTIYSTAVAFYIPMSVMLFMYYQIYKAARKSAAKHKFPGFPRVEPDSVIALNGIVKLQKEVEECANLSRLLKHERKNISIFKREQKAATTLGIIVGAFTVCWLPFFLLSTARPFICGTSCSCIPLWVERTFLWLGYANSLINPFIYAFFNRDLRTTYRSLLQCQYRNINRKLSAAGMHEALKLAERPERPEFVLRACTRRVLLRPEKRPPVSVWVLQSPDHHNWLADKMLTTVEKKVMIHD
# Chain of 5-HT2A receptor (P28223 whole entry): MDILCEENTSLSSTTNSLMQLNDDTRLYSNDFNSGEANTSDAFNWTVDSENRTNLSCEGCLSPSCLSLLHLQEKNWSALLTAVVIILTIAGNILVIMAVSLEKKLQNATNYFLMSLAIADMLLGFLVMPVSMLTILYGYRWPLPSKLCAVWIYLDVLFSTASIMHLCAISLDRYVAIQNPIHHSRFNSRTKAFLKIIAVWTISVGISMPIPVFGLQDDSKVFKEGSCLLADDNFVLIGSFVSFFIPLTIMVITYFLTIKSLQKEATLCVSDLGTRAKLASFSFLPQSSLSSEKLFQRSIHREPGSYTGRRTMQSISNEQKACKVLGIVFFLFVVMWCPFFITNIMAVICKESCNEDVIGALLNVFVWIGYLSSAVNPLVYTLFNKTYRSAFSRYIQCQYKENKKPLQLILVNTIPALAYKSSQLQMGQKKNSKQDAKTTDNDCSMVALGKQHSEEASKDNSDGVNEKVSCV
# T11 sequence (Q01959 whole entry): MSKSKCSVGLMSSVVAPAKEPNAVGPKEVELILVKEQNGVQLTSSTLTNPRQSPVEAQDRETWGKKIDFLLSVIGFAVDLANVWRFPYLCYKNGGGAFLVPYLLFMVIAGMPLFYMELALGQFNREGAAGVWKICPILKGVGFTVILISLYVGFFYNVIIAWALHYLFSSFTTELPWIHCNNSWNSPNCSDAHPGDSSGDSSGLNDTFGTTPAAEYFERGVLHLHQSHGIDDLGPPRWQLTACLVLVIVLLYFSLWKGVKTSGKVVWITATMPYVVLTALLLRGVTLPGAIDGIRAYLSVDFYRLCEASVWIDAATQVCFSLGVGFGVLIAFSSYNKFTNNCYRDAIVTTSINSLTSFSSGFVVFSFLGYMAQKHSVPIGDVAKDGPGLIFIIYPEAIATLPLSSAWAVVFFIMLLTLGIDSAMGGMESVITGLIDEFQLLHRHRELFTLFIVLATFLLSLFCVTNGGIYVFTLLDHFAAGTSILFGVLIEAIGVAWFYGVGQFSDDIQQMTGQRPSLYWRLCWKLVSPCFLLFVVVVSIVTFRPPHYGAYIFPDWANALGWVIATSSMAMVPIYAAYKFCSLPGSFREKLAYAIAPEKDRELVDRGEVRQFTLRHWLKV
SMILES,Ki [1] [µM],Ki [2] [µM],"HT1B, percent of control-specific binding [3] [%]","HT1D, percent of control-specific binding [4] [%]","HT2B, percent of control-specific binding [5] [%]","HT2C, percent of control-specific binding [6] [%]","HT7, percent of control-specific binding [7] [%]",inhibition at 10 µM [8] [%],"D2, percent of control-specific binding [9] [%]","D3, percent of control-specific binding [10] [%]","DAT, percent of control-specific binding [11] [%]","MT1, percent of control-specific binding [12] [%]","NET, percent of control-specific binding [13] [%]",Ki [14] [µM],"Ki [1, 15] [µM]","SERT binding, binding curve in words [2]"
CC(Cc1ccc2c(c1)OCO2)N1CCC1 (stereo not drawn) [A(II)],0.926,1.87,17,43,84,94,59,60,13,56,86,3,77,13,–,–
CC(Cc1ccc2c(c1)OCO2)N1CCOCC1 (stereo not drawn) [A(III)],38.6,26.3,0,0,13,3,3,32,12,9,9,0,0,42,–,–
CC(Cc1ccc2c(c1)OCO2)N1CC(NC(=O)OC(C)(C)C)C1 (stereo not drawn) [A(IV)],–,49.8,15,13,94,69,79,75,37,84,20,3,15,15,1.6,–
CC(Cc1ccc2c(c1)OCCO2)NCc1cc2c(cc1Br)OCO2 (stereo not drawn) [A(IX)],0.986,0.223,1,83,97,88,72,82,35,45,75,24,47,19,–,–
COc1cc2c(cc1CNC(C)Cc1ccc3c(c1)OCO3)OCO2 (stereo not drawn) [A(V)],1.88,1.28,0,0,92,90,68,74,19,23,84,23,83,19,–,–
CC(Cc1ccc2c(c1)OCO2)NCc1cc2c(cc1Br)OCO2 (stereo not drawn) [A(VI)],1.52,0.475,0,47,99,97,67,74,39,42,79,20,55,5.3,–,binds SERT
CC(Cc1ccc2c(c1)OCO2)NN(C)C (stereo not drawn) [A(VIII)],–,22.6,0,0,67,79,17,8,12,18,38,33,2,3.38,19.6,–
COc1cc2c(cc1CNC(C)Cc1ccc3c(c1)OCCO3)OCO2 (stereo not drawn) [A(X)],1.1,2.36,0,10,89,63,59,81,13,25,84,15,49,12,–,–
CC(Cc1ccc2c(c1)OCCO2)NCc1cc2c(cc1Br)OCCO2 (stereo not drawn) [A(XI)],0.507,0.191,7,31,94,63,62,92,40,36,47,15,64,7,–,–
O=C(Cc1c(Br)ccc2c1OCO2)N1CCCC1 [A(XXVI)],–,–,0,0,1,1,0,0,0,0,0,30,0,31,44.4,–
O=C(Cc1ccc2c(c1)OC(F)(F)O2)N1CCCC1 [A(XXVII)],–,634,0,2,5,9,0,0,0,0,5,2,15,–,> 1000,–
